{
  "source": "patent US20120190059A1",
  "about": "“METHODS FOR OBTAINING HEPATOCYTES, HEPATIC ENDODERM CELLS AND HEPATIC PROGENITOR CELLS BY INDUCED DIFFERENTIATION” (BEIJING HUAYU[…]., LTD., priority 2009, published 2012)",
  "system": "cytochrome p450",
  "test": "PROD detection of cytochrome p450 activity in differentiated hepatocyte-like cells",
  "conditions": "phenobarbital induction versus no induction, hepatocyte-like cells differentiated from hepatic progenitor cells",
  "data": [
    {"smiles": "CCC1(c2ccccc2)C(=O)NC(=O)NC1=O", "note": "[Phenobarbital]", "values": [
      {"measurement": "PROD activity of the differentiated cells", "value": "could improve the PROD activity"},
      {"measurement": "PROD activity of the differentiated cells", "setting": "listed as phenobarbital", "value": "PROD activity was enhanced"}
    ]}
  ]
}
